Laboratory results reported in the NIST ThermoML archive (doi:10.1016/j.jct.2005.05.003).

Assay: mn = molality of the nth substance listed, in mol/kg
Conditions: Liquid, Vibrating tube method

[Ca+2].[Cl-].[Cl-] [calcium chloride] + CO
Conditions	mass density [kg/m3]
298.27 K, 184 kPa, m1 = 2.393	977.23
298.27 K, 5004 kPa, m1 = 2.393	980.74
298.27 K, 9983 kPa, m1 = 2.393	984.25
298.27 K, 14989 kPa, m1 = 2.393	987.66
298.27 K, 19998 kPa, m1 = 2.393	990.95
298.27 K, 25001 kPa, m1 = 2.393	994.14
298.27 K, 30011 kPa, m1 = 2.393	997.26
298.27 K, 34980 kPa, m1 = 2.393	1000.22
298.27 K, 39985 kPa, m1 = 2.393	1003.15
298.28 K, 175 kPa, m1 = 0.2853	814.28
298.28 K, 179 kPa, m1 = 0.6588	848.89
298.28 K, 202 kPa, m1 = 0.1082	797.82
298.28 K, 4988 kPa, m1 = 0.6588	853.15
298.28 K, 5000 kPa, m1 = 0.2853	818.77
298.28 K, 5011 kPa, m1 = 0.1082	802.48
298.28 K, 9997 kPa, m1 = 0.6588	857.39
298.28 K, 10009 kPa, m1 = 0.2853	823.22
298.28 K, 10011 kPa, m1 = 0.1082	807.08
298.28 K, 14985 kPa, m1 = 0.2853	827.41
298.28 K, 15002 kPa, m1 = 0.1082	811.44
298.28 K, 15012 kPa, m1 = 0.6588	861.47
298.28 K, 19991 kPa, m1 = 0.1082	815.57
298.28 K, 20010 kPa, m1 = 0.6588	865.31
298.28 K, 20018 kPa, m1 = 0.2853	831.46
298.28 K, 24989 kPa, m1 = 0.2853	835.29
298.28 K, 24991 kPa, m1 = 0.6588	868.99
298.28 K, 24997 kPa, m1 = 0.1082	819.63
298.28 K, 29982 kPa, m1 = 0.2853	838.98
298.28 K, 29989 kPa, m1 = 0.1082	823.45
298.28 K, 29991 kPa, m1 = 0.6588	872.56
298.28 K, 34983 kPa, m1 = 0.6588	875.99
298.28 K, 34994 kPa, m1 = 0.2853	842.53
298.28 K, 35017 kPa, m1 = 0.1082	827.11
298.28 K, 39984 kPa, m1 = 0.6588	879.31
298.28 K, 39998 kPa, m1 = 0.1082	830.67
298.28 K, 40005 kPa, m1 = 0.2853	845.94
323.22 K, 232 kPa, m1 = 0.6588	824.35
323.22 K, 237 kPa, m1 = 2.393	952.79
323.22 K, 245 kPa, m1 = 0.1082	773.87
323.22 K, 4998 kPa, m1 = 0.6588	829.19
323.22 K, 5003 kPa, m1 = 2.393	956.69
323.22 K, 5013 kPa, m1 = 0.1082	779.2
323.22 K, 9984 kPa, m1 = 0.1082	784.43
323.22 K, 9988 kPa, m1 = 2.393	960.6
323.22 K, 10013 kPa, m1 = 0.6588	834.04
323.22 K, 14985 kPa, m1 = 2.393	964.38
323.22 K, 14994 kPa, m1 = 0.1082	789.4
323.22 K, 15000 kPa, m1 = 0.6588	838.59
323.22 K, 19991 kPa, m1 = 0.1082	794.09
323.22 K, 20010 kPa, m1 = 0.6588	842.96
323.22 K, 20014 kPa, m1 = 2.393	968.03
323.22 K, 24988 kPa, m1 = 0.6588	847.08
323.22 K, 24989 kPa, m1 = 0.1082	798.56
323.22 K, 25005 kPa, m1 = 2.393	971.52
323.22 K, 29988 kPa, m1 = 0.1082	802.81
323.22 K, 29988 kPa, m1 = 2.393	974.89
323.22 K, 30009 kPa, m1 = 0.6588	851.08
323.22 K, 34980 kPa, m1 = 2.393	978.17
323.22 K, 34991 kPa, m1 = 0.1082	806.89
323.22 K, 35005 kPa, m1 = 0.6588	854.89
323.22 K, 39995 kPa, m1 = 0.1082	810.79
323.22 K, 39995 kPa, m1 = 0.6588	858.56
323.22 K, 40017 kPa, m1 = 2.393	981.39
323.23 K, 226 kPa, m1 = 0.2853	790.12
323.23 K, 5015 kPa, m1 = 0.2853	795.26
323.23 K, 9993 kPa, m1 = 0.2853	800.3
323.23 K, 14993 kPa, m1 = 0.2853	805.07
323.23 K, 20003 kPa, m1 = 0.2853	809.62
323.23 K, 25013 kPa, m1 = 0.2853	813.96
323.23 K, 30015 kPa, m1 = 0.2853	818.08
323.23 K, 34988 kPa, m1 = 0.2853	821.99
323.23 K, 40005 kPa, m1 = 0.2853	825.78
348.23 K, 303 kPa, m1 = 2.393	928.79
348.23 K, 4983 kPa, m1 = 2.393	933.12
348.23 K, 9990 kPa, m1 = 2.393	937.54
348.23 K, 15005 kPa, m1 = 2.393	941.76
348.23 K, 20000 kPa, m1 = 2.393	945.79
348.23 K, 24993 kPa, m1 = 2.393	949.65
348.23 K, 29995 kPa, m1 = 2.393	953.38
348.23 K, 35000 kPa, m1 = 2.393	956.97
348.23 K, 39984 kPa, m1 = 2.393	960.44
348.24 K, 308 kPa, m1 = 0.1082	748.93
348.24 K, 321 kPa, m1 = 0.6588	799.27
348.24 K, 326 kPa, m1 = 0.2853	765.1
348.24 K, 4986 kPa, m1 = 0.6588	804.77
348.24 K, 5001 kPa, m1 = 0.2853	770.94
348.24 K, 5010 kPa, m1 = 0.1082	755.08
348.24 K, 9985 kPa, m1 = 0.1082	761.11
348.24 K, 9995 kPa, m1 = 0.6588	810.3
348.24 K, 9998 kPa, m1 = 0.2853	776.76
348.24 K, 14994 kPa, m1 = 0.1082	766.79
348.24 K, 14997 kPa, m1 = 0.6588	815.48
348.24 K, 15007 kPa, m1 = 0.2853	782.23
348.24 K, 19987 kPa, m1 = 0.6588	820.39
348.24 K, 19991 kPa, m1 = 0.2853	787.34
348.24 K, 20008 kPa, m1 = 0.1082	772.12
348.24 K, 24982 kPa, m1 = 0.1082	777.11
348.24 K, 24994 kPa, m1 = 0.6588	825.04
348.24 K, 24997 kPa, m1 = 0.2853	792.2
348.24 K, 29990 kPa, m1 = 0.1082	781.87
348.24 K, 29991 kPa, m1 = 0.2853	796.8
348.24 K, 29992 kPa, m1 = 0.6588	829.46
348.24 K, 34986 kPa, m1 = 0.2853	801.19
348.24 K, 34998 kPa, m1 = 0.6588	833.71
348.24 K, 35025 kPa, m1 = 0.1082	786.39
348.24 K, 39992 kPa, m1 = 0.1082	790.73
348.24 K, 40048 kPa, m1 = 0.6588	837.76
348.24 K, 40055 kPa, m1 = 0.2853	805.38
373.24 K, 517 kPa, m1 = 2.393	904.38
373.24 K, 4985 kPa, m1 = 2.393	909.14
373.24 K, 10000 kPa, m1 = 2.393	914.19
373.24 K, 14988 kPa, m1 = 2.393	918.95
373.24 K, 20003 kPa, m1 = 2.393	923.48
373.24 K, 25015 kPa, m1 = 2.393	927.81
373.24 K, 29988 kPa, m1 = 2.393	931.93
373.24 K, 35016 kPa, m1 = 2.393	935.94
373.24 K, 40000 kPa, m1 = 2.393	939.74
373.26 K, 523 kPa, m1 = 0.2853	738.51
373.26 K, 527 kPa, m1 = 0.1082	722.32
373.26 K, 534 kPa, m1 = 0.6588	773.01
373.26 K, 4997 kPa, m1 = 0.2853	745.17
373.26 K, 4999 kPa, m1 = 0.1082	729.31
373.26 K, 5013 kPa, m1 = 0.6588	779.26
373.26 K, 9996 kPa, m1 = 0.2853	752.01
373.26 K, 10000 kPa, m1 = 0.6588	785.66
373.26 K, 10001 kPa, m1 = 0.1082	736.45
373.26 K, 14984 kPa, m1 = 0.2853	758.3
373.26 K, 14986 kPa, m1 = 0.6588	791.62
373.26 K, 15009 kPa, m1 = 0.1082	743.03
373.26 K, 19980 kPa, m1 = 0.2853	764.17
373.26 K, 19981 kPa, m1 = 0.1082	749.09
373.26 K, 20010 kPa, m1 = 0.6588	797.23
373.26 K, 24999 kPa, m1 = 0.2853	769.7
373.26 K, 25000 kPa, m1 = 0.6588	802.48
373.26 K, 25016 kPa, m1 = 0.1082	754.83
373.26 K, 29995 kPa, m1 = 0.1082	760.17
373.26 K, 29996 kPa, m1 = 0.6588	807.45
373.26 K, 30000 kPa, m1 = 0.2853	774.89
373.26 K, 34993 kPa, m1 = 0.2853	779.79
373.26 K, 35000 kPa, m1 = 0.6588	812.19
373.26 K, 35003 kPa, m1 = 0.1082	765.25
373.26 K, 40001 kPa, m1 = 0.6588	816.69
373.26 K, 40004 kPa, m1 = 0.2853	784.46
373.26 K, 40011 kPa, m1 = 0.1082	770.07
398.25 K, 888 kPa, m1 = 2.393	878.49
398.25 K, 5007 kPa, m1 = 2.393	883.68
398.25 K, 10016 kPa, m1 = 2.393	889.54
398.25 K, 14986 kPa, m1 = 2.393	895.06
398.25 K, 19983 kPa, m1 = 2.393	900.25
398.25 K, 24997 kPa, m1 = 2.393	905.15
398.25 K, 29989 kPa, m1 = 2.393	909.82
398.25 K, 34996 kPa, m1 = 2.393	914.29
398.25 K, 40014 kPa, m1 = 2.393	918.56
398.27 K, 880 kPa, m1 = 0.6588	744.38
398.27 K, 899 kPa, m1 = 0.2853	709.27
398.27 K, 901 kPa, m1 = 0.1082	692.84
398.27 K, 4987 kPa, m1 = 0.6588	751.36
398.27 K, 4995 kPa, m1 = 0.2853	716.79
398.27 K, 4999 kPa, m1 = 0.1082	700.78
398.27 K, 9984 kPa, m1 = 0.2853	725.04
398.27 K, 9997 kPa, m1 = 0.6588	759.11
398.27 K, 10005 kPa, m1 = 0.1082	709.46
398.27 K, 14988 kPa, m1 = 0.2853	732.54
398.27 K, 15011 kPa, m1 = 0.1082	717.28
398.27 K, 15012 kPa, m1 = 0.6588	766.18
398.27 K, 19999 kPa, m1 = 0.2853	739.43
398.27 K, 20003 kPa, m1 = 0.1082	724.41
398.27 K, 20013 kPa, m1 = 0.6588	772.68
398.27 K, 24989 kPa, m1 = 0.2853	745.78
398.27 K, 25000 kPa, m1 = 0.6588	778.71
398.27 K, 25003 kPa, m1 = 0.1082	730.99
398.27 K, 29985 kPa, m1 = 0.6588	784.37
398.27 K, 30002 kPa, m1 = 0.2853	751.73
398.27 K, 30013 kPa, m1 = 0.1082	737.16
398.27 K, 34982 kPa, m1 = 0.1082	742.86
398.27 K, 34983 kPa, m1 = 0.2853	757.27
398.27 K, 35012 kPa, m1 = 0.6588	789.76
398.27 K, 39992 kPa, m1 = 0.2853	762.54
398.27 K, 39995 kPa, m1 = 0.1082	748.29
398.27 K, 39999 kPa, m1 = 0.6588	794.79
